# Source: paper PMC7456776, “The utility of a differentiated preclinical liver model, HepaRG cells, in investigating delayed toxicity via inhibition of mitochondrial-replication induced by fialuridine” (Toxicology and Applied Pharmacology, 2020)
# Entries after “also recorded” stand apart in the source; their conditions may differ. Read-outs that look alike come from different tables or passages of the source.
# How the values were obtained:
# HepG2 cells [1] = assay: Mitochondrial DNA content by real-time PCR; assay type: cell-based, human; conditions: HepG2, 1.3–100 μM, up to 72 h
# Procedure: (§1) DNA was extracted via QIAamp DNA Mini Kit (Qiagen, Crawley, UK). Relative levels of mtDNA copy number were determined by real-time pre-designed PCR Taqman detection kits designed to target the mitochondrial MT-ND1 gene and the nuclear RNase P gene, using TAQMAN GT Master Mix. PCR reactions were performed according to standard conditions for TaqMan: 95 °C for 10 min; 40 cycles at (95 °C 15 s, 60 °C 1 min). PCR assays were performed in duplicate for each DNA sample. Analysis was undertaken with mitochondrial ND-1 normalised to genomic RNase P and treated sample to the appropriate vehicle.
# Figure Supp 3: Mitochondrial DNA content in HepG2 cells exposed to FIAU (48 and 72 h). MtDNA content was measured by real-time PCR. HepG2 cells were exposed to FIAU (10 and 100 µM) at 48 h (black bar) and 72 h (grey bar). All results are presented as % of vehicle control. n=3.
# HepG2 cells [2] = test system: HepG2 cells; set-up: method as in Colacino et al., 1994; conditions: 9 days, 30 μM, ref Colacino et al., 1994; cited from earlier work
# patients = test system: patients; set-up: method as in McKenzie et al., 1995; conditions: ref McKenzie et al., 1995, cited from earlier work
# HepG2 cells [3] = assay: Metabolic modification assay: ATP and total cellular protein, 72 h; assay type: cell-based, human; conditions: for Total cellular protein, % of vehicle control: HepG2, 300 μM, 3 days
# Procedure: HepG2 cells were cultured and maintained in DMEM media as described previously ([Kamalian et al., 2015]).
# (§2) Differentiated HepaRG cells were treated with 0–300 μM final concentrations of FIAU (1–4 weeks). FIAU was replaced in fresh differentiation media every 3–4 days. The final concentration of DMSO was at a constant 0.5% v/v in both HepaRG and HepG2 treatments. In all experiments dosing was performed in glucose supplemented media.
# This was performed as previously described ([Kamalian et al., 2018]). Briefly, following the dosing period, media was switched to either “glucose” or “galactose” media for 2 h prior to measuring cellular ATP content and lactate dehydrogenase (LDH) release as a marker of cell viability, both normalised to protein content. IC50 values were calculated using Prism (GraphPad, California, USA) (Table 1) and criteria applied to identify a compound as a direct mitochondrial toxin.
# [4] = test system: mitochondrial respiratory complexes I, II, IV in permeabilised HepaRG cells; assay: In-situ mito substrate assay of individual respiratory complex activity in permeabilised cells (Seahorse); assay type: cell-based, human; conditions: 12 μM
# Source text: The assessment of individual mitochondrial complex activity was preformed using the in-situ mito substrate assay in permeabilised cells using Seahorse Technology as previously described ([Ball et al., 2016]).
# HepG2 cells [5] = test system: HepG2 cells; set-up: method as in Colacino et al., 1994; conditions: 6 days of treatment, ref Colacino et al., 1994; cited from earlier work
# HepaRG cells [6] = assay: Mitochondrial DNA content by real-time PCR (MT-ND1 normalised to RNase P); assay type: cell-based, human
# Procedure: as §1
# HepaRG cells [7] = assay: Cellular steatosis by Oil Red O staining; assay type: cell-based, human; conditions: 12 μM, 4 weeks
# Procedure: Following drug treatment cells were washed twice in PBS and fixed in 4% paraformaldehyde (1 h, RT). Cells were then washed twice in ddH2O and incubated in isopropanol (IPA, 60% v/v, 5 min). Oil red O working solution (3:2 in ddH2O from the stock solution of 0.33% w/v in 100% IPA) was applied to the cells for 20 min. Background staining was removed by several washes with ddH2O and a 5 min wash in 60% v/v IPA. The intracellular lipid was extracted by 100% IPA after the wells were dried. The lipid content was quantified by reading the optical density at 540 nm on a Varioskan Flash (Thermo Fisher Scientific, USA).
# HepaRG cells [8] = assay: Cellular L-lactate release; assay type: cell-based, human; conditions: 12 μM, four-week exposure
# Procedure: Following incubation with drug the media from cells was transferred to a fresh 96-well plate and L-lactate levels were measured using an L-lactate assay kit as per the manufacturer's instructions.
# [9] = set-up: method as in Bowsher et al., 1994; conditions: healthy volunteers, 5 mg single dose; ref Bowsher et al., 1994; cited from earlier work
# HepaRG cells [10] = assay: Seahorse XFe mitochondrial stress test (oxygen consumption, extracellular acidification); assay type: cell-based, human
# Procedure: (§3) Briefly, following the dosing period, media was switched to unbuffered XF basal medium (175 μl, pH 7.4) supplemented with glucose (25 mM), L-glutamine (2 mM) and sodium pyruvate (1 mM) before incubating in a CO2 free incubator (37 °C). Oxygen consumption was measured by Seahorse XFe96 according to the previously described protocol ([Kamalian et al., 2018]).
# HepG2 cells [11] = assay: Seahorse XFe mitochondrial stress test; assay type: cell-based, human; conditions: HepG2, 1.3–100 μM, up to 72 h
# Procedure: as §3
# Figure Supp 4: The effect of FIAU on mitochondrial respiratory activity of HepG2 cells. The bioenergetic parameters of HepG2 cells following exposure to FIAU (12 µM) were calculated using Seahorse respirometry at 48 h (black bar) and 72 h (grey bar). All results are presented as % of vehicle control. Key: dashed line marks vehicle control at 100 %. n=3.
# HepaRG cells [12] = conditions: human, 12 μM
# Procedure: Samples were prepared for transmission electron microscopy (TEM) in 3 cm dishes as follows. Cells were fixed in 2.5% (w/v) glutaraldehyde in 0.1 M phosphate buffer (pH 7.4) before staining with reduced osmium (2% (w/v) OsO4, 1.5% (w/v) potassium ferrocyanide in ddH2O), 1% (w/v) thiocarbohydrazide, 2% OsO4 (w/v in ddH20), then 1% (w/v) aqueous uranyl acetate overnight at 4 °C. The next day samples were finally stained with Walton's lead aspartate (0.02 M lead nitrate, 0.03 M aspartic acid, pH 5.5). To prevent precipitation artefacts the cells were washed copiously with ddH2O between each staining step. […] Dehydration was in a graded ethanol series before filtration and embedding in medium premix resin (TAAB, Reading, UK).
# For TEM, 70–74 nm serial sections were cut using a UC6 ultra microtome (Leica Microsystems, Wetzlar, Germany) and collected on Formvar (0.25% (w/v) in chloroform, TAAB, Reading, UK) coated Gilder 200 mesh copper grids (GG017/C, TAAB, Reading, UK). […]
# Resultant TEM images were analysed using Image J software to measure intracellular mitochondrial features (NIH, USA). […] In brief, total mitochondria number per cell was counted as well as mitochondria area (μM^2) alongside cytosol area (calculated as total cell area minus nuclear area and vacuole area μM^2).
# PHH spheroids = test system: PHH spheroids; set-up: method as in Bell et al., 2016; conditions: 3D PHH spheroids, 7 days; ref Bell et al., 2016; cited from earlier work
# HepaRG cells [13] = assay: Metabolic modification assay: dual ATP and cell viability (total cellular protein) assessment, extended dosing; assay type: cell-based, human
# Procedure: In accordance with Biopredic international guidelines, undifferentiated HepaRG cells were seeded into clear flat bottomed 96 well (9000 cells/well) or Seahorse plates (4000 cells/well). They were grown for two weeks in growth media before their differentiation over 2 further weeks in differentiation media. Cells were kept at 37 °C, 5% CO2 in a humidified environment and received fresh, appropriate media twice a week. The fully differentiated cells were then used over the following four-week period, whilst being maintained in differentiation media. All experiments were performed using cells at passage number < 20.
# as §2
# This was performed as previously described ([Kamalian et al., 2018]). […] IC50 values were calculated using Prism (GraphPad, California, USA) (Table 1) and criteria applied to identify a compound as a direct mitochondrial toxin.
# Each experiment was performed on three or more independent occasions (n ≥ 3). IC50 values were calculated using GraphPad Prism 7 software, and were expressed as a mean ± standard deviation (SD). For all other statistical analysis comparing the values obtained from treated cells to vehicle control an ANOVA was performed, with a Dunnett or Tukey post hoc analysis where appropriate. P values lower than 0.05 were considered as statistically significant for both tests.
structure (smiles),measurement,setting,value
"O=c1[nH]c(=O)n([C@@H]2O[C@H](CO)[C@@H](O)[C@@H]2F)cc1I [FIAU, fialuridine]",Mitochondrial copy number,HepG2 cells [1],no significant differences in mitochondrial copy number
same,mtDNA replication,HepG2 cells [2],decreases
same,Adverse effects in clinical trial,patients; extended trial period,five deaths from acute liver failure
same,Time at which toxicity became apparent,patients; week of treatment,> 13 week
same,"Total cellular protein, % of vehicle control",HepG2 cells [3]; galactose media,40.5 ± 13.4%
same,"Total cellular protein, % of vehicle control",HepG2 cells [3]; glucose media,49.0 ± 22.7%
same,Classification as mitotoxin,"HepG2 cells [3]; HepG2 cells, up to 3 days",cannot be classified as a mitotoxin
same,"Complex I activity, % of vehicle control",[4]; 2 weeks,26.9 ± 6.9%
same,"Complex II activity, % of vehicle control",[4]; 2 weeks,35.5 ± 17.7%
same,"Complex IV activity, % of vehicle control",[4]; 2 weeks,36.0 ± 15.9%
same,"Complex I activity, % of vehicle control",[4]; week 1,67.4 ± 13.5%
same,"Complex II activity, % of vehicle control",[4]; week 1,70.3 ± 9.8%
same,TC50 (Toxicity Concentration),HepG2 cells [5],35 µM
same,"mtDNA content, % of vehicle control","HepaRG cells [6]; 4 μM, week 1",59.2 ± 26.5%
same,"mtDNA content, % of vehicle control","HepaRG cells [6]; 10 μM, 1 week",23.5 ± 11.9%
same,"mtDNA content, % of vehicle control","HepaRG cells [6]; 10 μM, 4 weeks",5.8 ± 3.0%
same,Accumulation of intracellular lipids (oil red O),HepaRG cells [7],no accumulation of intracellular lipids
same,Extracellular L-lactate in cell supernatant,HepaRG cells [8],no significant increase in L-lactate
same,Cmax,[9],600 nM
same,"Parameters of oxygen consumption (BR, ALR, MR, SRC, PL, CE)","HepaRG cells [10]; 12 μM, 1 week",no significant changes
same,"ATP-linked respiration (ALR), % of vehicle control","HepaRG cells [10]; 12 μM, 2 weeks",77.4 ± 21.5%
same,"Basal respiration (BR), % of vehicle control","HepaRG cells [10]; 12 μM, 2 weeks",85.7 ± 28.1%
same,"Maximal respiration (MR), % of vehicle control","HepaRG cells [10]; 12 μM, 2 weeks",72.0 ± 19.1%
same,Proton leak (PL) and coupling efficiency (CE),"HepaRG cells [10]; 12 μM, 2 weeks",remained unchanged
same,"Spare respiratory capacity (SRC), % of vehicle control","HepaRG cells [10]; 12 μM, 2 weeks",65.9 ± 15.5%
same,Extracellular acidification rate,HepaRG cells [10]; over 2 weeks of treatment,no dose- or time-dependent increases
same,Bioenergetic parameters,HepG2 cells [11],no significant differences in bioenergetic parameters
same,Individual mean mitochondrial area,HepaRG cells [12],0.19 ± 0.01 μm^2
same,Number of mitochondria,HepaRG cells [12],0.80 ± 0.20 mitochondria/μm^2 of cytosol
same,IC50,PHH spheroids,0.7 µM
same,Concentration at which toxic effects were observed,"HepaRG cells [13]; HepaRG, extended dosing, 2 weeks",around 10 μM
same,IC50,"HepaRG cells [13]; HepaRG, wk 3 exposure, galactose media, read-out: IC50-ATP ± S.D., Galactose",5.7 ± 2.8 µM
same,IC50,"HepaRG cells [13]; Homo sapiens, HepaRG, wk 1, galactose media, total cellular protein, read-out: IC50-viability ± S.D., Galactose",101 ± 27 µM
same,IC50,"HepaRG cells [13]; Homo sapiens, HepaRG, wk 1, glucose media, total cellular protein, read-out: IC50-viability ± S.D., Glucose",118 ± 42 µM
same,IC50,"HepaRG cells [13]; Homo sapiens, HepaRG, wk 1 exposure, galactose media, read-out: IC50-ATP ± S.D., Galactose",103 ± 13.8 µM
same,IC50,"HepaRG cells [13]; Homo sapiens, HepaRG, wk 1 exposure, glucose media, read-out: IC50-ATP ± S.D., Glucose",112 ± 32.8 µM
same,IC50,"HepaRG cells [13]; Homo sapiens, HepaRG, wk 2, galactose media, total cellular protein, read-out: IC50-viability ± S.D., Galactose",7.3 ± 3.8 µM
same,IC50,"HepaRG cells [13]; Homo sapiens, HepaRG, wk 2, glucose media, total cellular protein, read-out: IC50-viability ± S.D., Glucose",26.1 ± 9.3 µM
same,IC50,"HepaRG cells [13]; Homo sapiens, HepaRG, wk 2 exposure, glucose media, read-out: IC50-ATP ± S.D., Glucose",16.8 ± 2.3 µM
same,IC50,"HepaRG cells [13]; Homo sapiens, HepaRG, wk 3, galactose media, total cellular protein, read-out: IC50-viability ± S.D., Galactose",15.5 ± 3.4 µM
same,IC50,"HepaRG cells [13]; Homo sapiens, HepaRG, wk 3, glucose media, total cellular protein, read-out: IC50-viability ± S.D., Glucose",14.2 ± 1.3 µM
same,IC50,"HepaRG cells [13]; Homo sapiens, HepaRG, wk 3 exposure, galactose media, read-out: IC50-ATP ± S.D., Galactose",5 µM
same,IC50,"HepaRG cells [13]; Homo sapiens, HepaRG, wk 3 exposure, glucose media, read-out: IC50-ATP ± S.D., Glucose",5.4 ± 2.3 µM
same,IC50,"HepaRG cells [13]; Homo sapiens, HepaRG, wk 4, galactose media, total cellular protein, read-out: IC50-viability ± S.D., Galactose",3.6 ± 2.8 µM
same,IC50,"HepaRG cells [13]; Homo sapiens, HepaRG, wk 4, glucose media, total cellular protein, read-out: IC50-viability ± S.D., Glucose",7.6 ± 3.3 µM
same,IC50,"HepaRG cells [13]; Homo sapiens, HepaRG, wk 4 exposure, galactose media, read-out: IC50-ATP ± S.D., Galactose",7.3 ± 0.5 µM
same,IC50,"HepaRG cells [13]; Homo sapiens, HepaRG, wk 4 exposure, glucose media, read-out: IC50-ATP ± S.D., Glucose",4.9 ± 1.5 µM
O=c1[nH]c(=O)n([C@@H]2O[C@H](CO)[C@@H](O)[C@H]2F)cc1I [FIAM],Mitochondrial respiration,"HepaRG cells [10]; 2 weeks, 12 μM and up to 100 μM",did not reduce mitochondrial respiration
same,Cytotoxic effects,"HepaRG cells [13]; HepaRG cells, up to 4 weeks",no cytotoxic effects
same,Cellular ATP content or cell viability compared to vehicle control,"HepaRG cells [13]; HepaRG, 4-week incubation period",no significant differences; also recorded: did not induce any decrease
